According to patent US20070066601A1, “Combination of a serotonin reuptake inhibitor and a histamine 3 receptor antagonist, inverse agonist or partial agonist” (H. LUNDBECK A/S, priority 2003, published 2007):

Tests used:
cortex synaptosomes = conditions: cited from earlier work
[1] = system: serotonin levels in ventral hippocampus; test: Microdialysis of brain serotonin levels in rats; assay type: in vivo, rat; conditions: for effect on 5-HT levels when compared to citalopram administration alone: P<0.0001
Procedure: Male albino rats of a Wistar-derived strain (285-320 g; Harlan, Zeist, The Netherlands) were used for the experiments. Upon surgery, rats were housed individually in plastic cages (35×35×40 cm), and had free access to food and water. Animals were kept on a 12 h light schedule (light on 7:00 a.m.). The experiments are concordant with the declarations of Helsinki and were approved by the animal care committee of the faculty of mathematics and natural science of the University of Groningen.
Microdialysis of brain serotonin levels was performed using home made I-shaped probes, made of polyacrylonitrile/sodium methyl sulfonate copolymer dialysis fiber (i.d. 220 μm, o.d. 300 μm, AN 69, Hospal, Italy). Preceding surgery rats were anaesthetised using isoflurane (O2/N2O; 300/300 ml/min). Lidocaine-HCl, 10 % (m/v) was used for local anaesthesia. Rats were placed in a stereotaxic frame (Kopf, USA), and probes were inserted into Ventral Hippcampus (V. Hippo, L +4.8 mm, […], V: −8.0 mm) and median prefrontal cortex (PFC, L −0.9 mm; AP: +3.5 mm relative to bregma; V: −6.0 mm (Paxinos and Watson, 1982). After insertion, probes were secured with dental cement.
Rats were allowed to recover for at least 24 h. Probes were perfused with artificial cerebrospinal fluid containing 147 mM NaCl, 3.0 mM KCl, 1.2 mM CaCl2, and 1.2 mM MgCl2, at a flow-rate of 1.5 μl/min (Harvard apparatus, South Natick, Mass., USA). 15 minute microdialysis samples were collected in HPLC vials containing 7.5 μl 0.02 M acetic acid for serotonin analysis.
Twenty-μl microdialysate samples were injected via an autoinjector (CMA/200 refrigerated microsampler, CMA, Sweden) onto a 100×2.0 mm C18 Hypersil 3 μm column (Bester, Amstelveen, the Netherlands) and separated with a mobile phase consisting of 5 g/L di-ammoniumsulfate, 500 mg/L EDTA, 50 mg/L heptane sulphonic acid, 4% methanol v/v, and 30 μI/L of triethylamine, pH 4.65 at a flow of 0.4 ml/min (Shimadzu LC-10 AD). 5-HT was detected amperometrically at a glassy carbon electrode at 500 mV vs Ag/AgCl (Antec Leyden, Leiden, The Netherlands). The detection limit was 0.5 fmol 5-HT per 20 μl sample (signal to noise ratio 3).
Four consecutive microdialysis samples with less then 20% variation were taken as control and set at 100%. Data are presented as percentages of control level (mean±S.E.M.) in time. Statistical analysis was performed using Sigmastat for Windows (SPSS, Jandel Corporation). Treatments were compared versus controls using two way analysis of variance (ANOVA) for repeated measurements, followed by Student Newman Keuls test. Level of significance level was set at p<0.05.

C[C@@H](N)Cc1cnc[nH]1 [R-(alphe)-methylhistamine]
effect on electrical evoked release of tritiated serotonin (cortex synaptosomes): inhibited

O=C(c1ccc(OCCCc2cnc[nH]2)cc1)C1CC1 [ciproxifan, Ciproxifan]
effects on serotonin levels in ventral hippocampus ([1]; ciproxifan alone, 15 mg/kg s.c., P=0.54 n.s.): did not induce any effects
effect on 5-HT levels when compared to citalopram administration alone ([1]; co-administration of citalopram 10 μmol/kg with ciproxifan 15 mg/kg s.c.): augmented effect

S=C(NC1CCCCC1)N1CCC(c2cnc[nH]2)CC1 [thioperamide, Thioperamide]
effect on 5-HT levels when compared to citalopram administration alone ([1]; co-administration of citalopram 10 μmol/kg with thioperamide 5 mg/kg s.c.): augmented effect
effects on serotonin levels in ventral hippocampus ([1]; thioperamide alone, 5 mg/kg s.c., P=0.44 n.s.): did not induce any effects
effect on the inhibition of evoked serotonin release by R-(alphe)-methylhistamine (cortex synaptosomes): reversed
